Assay results taken from patent publication US7531320B2, “Modulation of β-catenin/TCF-activated transcription” (priority 2003, dated 2009).

Test system: SW480 cells
Test: cDNA microarray analysis (Clontech Atlas Human Cancer 1.2 Array) of SW480 cells
Conditions: 25 μM; for Ratio, fos-related antigen (FRA1): gene code A13c; for Ratio, epidermal growth factor receptor (EGFR): gene code A12d; for Ratio, placental calcium-binding protein; calvasculin: gene code B07l; for Ratio, proliferating cyclic nuclear antigen (PCNA); cyclin: gene code C13e; for Ratio, growth arrest &DNA-damage-inducible protein 153 (GADD153): gene code C05d; for Ratio, integrin alpha 3 (ITGA3); galactoprotein B3 (GAPB3): gene code D03e; for Ratio, low-affinity nerve growth factor receptor (NGF receptor; NGFR): gene code D03k; for Ratio, histone H4: gene code D08b; for Ratio, nuclear protein: gene code D09b; for Ratio, interleukin-1 beta precursor (IL-1; IL1B); catabolin: gene code E07f; for Ratio, macrophage inhibitory cytokine 1 (MIC1): gene code E09e; for Ratio, neutrophil gelatinase-associated lipocalin precursor (NGAL): gene code F04i; for Ratio, early growth response alpha (EGR alpha): gene code F06n; for Ratio, gravin: gene code F09g; for Ratio, glycyl tRNA synthetase: gene code F13k

O=C1C(Cc2ccc(O)cc2)N2C(=O)CCN(C(=O)NCc3ccccc3)C2CN1Cc1cccc2ccccc12 (stereo not shown) [COMPOUND 1]
Ratio, WSL protein + TRAMP + Apo-3 + death domain receptor 3 (DDR3) (8-hour treatment, […]): 1.84
Ratio, integrin beta 4 (ITGB4); CD104 antigen (8-hour treatment, […]): 1.84
Ratio, G2/mitotic-specific cyclin B1 (CCNB1) (8-hour treatment, gene code A05i): 0.57
Ratio, matrix metalloproteinase 11 (MMP11); stromelysin 3 (8-hour treatment, gene code A10f): 0.77
Ratio, fos-related antigen (FRA1) (8-hour treatment): 2.48
Ratio, brain glucose transporter 3 (GTR3) (8-hour treatment, gene code A14n): 1.94
Ratio, epidermal growth factor receptor (EGFR) (8-hour treatment): 4.20
Ratio, ERBB-3 receptor protein-tyrosine kinase precursor (8-hour treatment, gene code A14d): 1.36
Ratio, linker for activation of T-cells (LAT) (8-hour treatment, gene code B01m): 0.74
Ratio, placental calcium-binding protein; calvasculin (8-hour treatment): 0.85
Ratio, ras-related C3 botulinum toxin substrate 2; p21-rac2 (8-hour treatment, gene code B12j): 0.62
Ratio, retinoic acid receptor beta (RXR-beta; RXRB) (8-hour treatment, gene code B14n): 0.74
Ratio, PTPCAAX1 nuclear tyrosine phosphatase (PRL-1) (8-hour treatment, gene code B08h): 2.56
Ratio, MCM4 DNA replication licensing factor; CDC21 homolog (8-hour treatment, gene code C06f): 0.38
Ratio, growth arrest &DNA-damage-inducible protein (GADD45) (8-hour treatment, gene code C09i): 5.36
Ratio, proliferating cyclic nuclear antigen (PCNA); cyclin (8-hour treatment): 0.38
Ratio, growth arrest &DNA-damage-inducible protein 153 (GADD153) (8-hour treatment): 6.92
Ratio, DNA-binding protein CPBP (8-hour treatment, gene code D03b): 1.47
Ratio, integrin alpha 3 (ITGA3); galactoprotein B3 (GAPB3) (8-hour treatment): 2.82
Ratio, low-affinity nerve growth factor receptor (NGF receptor; NGFR) (8-hour treatment): 1.77
Ratio, histone H4 (8-hour treatment): 0.73
Ratio, integrin alpha 7B precursor (IGA7B) (8-hour treatment, gene code D08e): 1.69
Ratio, paxillin (8-hour treatment, gene code D08f): 2.14
Ratio, nuclear protein (8-hour treatment): 2.11
Ratio, T-cell surface glycoprotein CD3 epsilon subunit precursor (8-hour treatment, gene code D11c): 0.60
Ratio, interleukin-13 precursor (IL-13); NC30 (8-hour treatment, gene code E01g): 0.88
Ratio, interleukin-1 beta precursor (IL-1; IL1B); catabolin (8-hour treatment): 1.77
Ratio, macrophage inhibitory cytokine 1 (MIC1) (8-hour treatment): 6.94
Ratio, nerve growth factor-inducible PC4 homolog (8-hour treatment, gene code E03d): 3.27
Ratio, neutrophil gelatinase-associated lipocalin precursor (NGAL) (8-hour treatment): 5.85
Ratio, ornithine decarboxylase (8-hour treatment, gene code F05e): 1.82
Ratio, early growth response alpha (EGR alpha) (8-hour treatment): 3.15
Ratio, ribonucleoside-diphosphate reductase M2 subunit (8-hour treatment, gene code F07e): 0.53
Ratio, type I cytoskeletal 18 keratin; cytokeratin 18 (K18) (8-hour treatment, gene code F08f): 1.59
Ratio, gravin (8-hour treatment): 6.40
Ratio, glycyl tRNA synthetase (8-hour treatment): 2.23
Ratio, proto-oncogene c-jun; transcription factor AP-1 (24-hour treatment, gene code A01c): 1.34
Ratio, EB1 protein (24-hour treatment, gene code A02b): 0.52
Ratio, c-myc binding protein MM-1 (24-hour treatment, gene code A03g): 0.43
Ratio, G1/S-specific cyclin D1 (CCND1); cyclin PRAD1; bcl-1 oncogene (24-hour treatment, gene code A06i): 0.47
Ratio, cyclin-dependent kinase regulatory subunit 1 (CKS1) (24-hour treatment, gene code A10k): 0.28
Ratio, cyclin-dependent kinase regulatory subunit (CKS2) (24-hour treatment, gene code A11k): 0.40
Ratio, fos-related antigen (FRA1) (24-hour treatment): 1.99
Ratio, epidermal growth factor receptor (EGFR) (24-hour treatment): 2.51
Ratio, ADP/ATP carrier protein (24-hour treatment, gene code B02a): 0.21
Ratio, 14-3-3 protein sigma; stratifin; epithelial cell marker protein 1 (24-hour treatment, gene code B03m): 0.45
Ratio, placental calcium-binding protein; calvasculin (24-hour treatment): 0.50
Ratio, ets domain protein elk-3; NET; SRF accessory protein 2 (SAP2) (24-hour treatment, gene code C01j): 1.71
Ratio, tumor necrosis factor type 1 receptor associated protein (TRAP1) (24-hour treatment, gene code C04b): 0.73
Ratio, MCM2 DNA replication licensing factor; nuclear protein BM28 (24-hour treatment, gene code C05f): 0.23
Ratio, proliferating cyclic nuclear antigen (PCNA); cyclin (24-hour treatment): 0.33
Ratio, HHR23A; UV excision repair protein protein RAD23A (24-hour treatment, gene code C04h): 0.36
Ratio, growth arrest &DNA-damage-inducible protein 153 (GADD153) (24-hour treatment): 3.66
Ratio, integrin alpha 3 (ITGA3); galactoprotein B3 (GAPB3) (24-hour treatment): 2.99
Ratio, low-affinity nerve growth factor receptor (NGF receptor; NGFR) (24-hour treatment): 2.50
Ratio, integrin beta 4 (ITGB4); CD104 antigen (24-hour treatment, gene code D06e): 2.68
Ratio, cytosolic superoxide dismutase 1 (SOD1) (24-hour treatment, gene code D06m): 0.45
Ratio, high mobility group protein HMG2 (24-hour treatment, gene code D07b): 0.35
Ratio, glutathione synthetase (GSH synthetase; GSH-S) (24-hour treatment, gene code D07m): 0.34
Ratio, histone H4 (24-hour treatment): 0.27
Ratio, nuclear protein (24-hour treatment): 0.49
Ratio, chromatin assembly factor 1 p48 subunit (CAF1 p48 subunit) (24-hour treatment, gene code D12a): 0.70
Ratio, N-sam; fibroblast growth factor receptor1 precursor (FGFR1) (24-hour treatment, gene code D08h): 10.39
Ratio, MHC class I truncated HLA G lymphocyte antigen (24-hour treatment, gene code E02m): 1.36
Ratio, 78-kDa glucose regulated protein precursor (GRP 78) (24-hour treatment, gene code E02n): 2.35
Ratio, PDGF associated protein (24-hour treatment, gene code E04i): 0.45
Ratio, interleukin-1 beta precursor (IL-1; IL1B); catabolin (24-hour treatment): 1.98
Ratio, macrophage inhibitory cytokine 1 (MIC1) (24-hour treatment): 2.79
Ratio, CD59 glycoprotein precursor (24-hour treatment, gene code E11l): 0.66
Ratio, fatty acid synthase (24-hour treatment, gene code F03e): 0.34
Ratio, vimentin (VIM) (24-hour treatment, gene code F04g): 1.34
Ratio, neutrophil gelatinase-associated lipocalin precursor (NGAL) (24-hour treatment): 23.85
Ratio, early growth response alpha (EGR alpha) (24-hour treatment): 1.79
Ratio, gravin (24-hour treatment): 8.46
Ratio, inosine-5′-monophosphate dehydrogenase 2 (24-hour treatment, gene code F10c): 0.68
Ratio, BENE (24-hour treatment, gene code F12l): 2.07
Ratio, elongation factor 2 (EF2) (24-hour treatment, gene code F13j): 0.55
Ratio, glycyl tRNA synthetase (24-hour treatment): 2.02
Ratio, TRAM protein (24-hour treatment, gene code F09h): 3.25
Ratio, L-lactate dehydrogenase H subunit (LDHB) (24-hour treatment, gene code F06d): 0.40
Ratio, brain-specific tubulin alpha 1 subunit (TUBA1) (24-hour treatment, gene code G29): 0.72
Ratio, HLA class I histocompatibility antigen C-4 alpha subunit (HLAC) (24-hour treatment, gene code G31): 1.29
Ratio, 23-kDa highly basic protein; 60S ribosomal protein L13A (24-hour treatment, gene code G45): 0.65
Genes analyzed down-regulated by greater than 50% (8 hours): ~0.3%
Genes analyzed upregulated more than 2-fold (8 hours): ~2%
